Experiments:
[1] = tested on: Patients presenting symptoms of depression; test: Hamilton Depression Rating scale and Beck Depression Inventory in depression; format: in vivo, human; details: with standard of care
Experimental: Patients presenting symptoms of depression, in addition to being provided standard of care for depression, are prescribed Mg-DHA or Mg Citrate capsules formulated to provide 150 mg of elemental magnesium, or DHA capsules for two weeks when recovery from depression is assessed.
Patients presenting symptoms of depression, in addition to being provided standard of care for depression, are prescribed Mg-DHA-LysoPC or Mg Citrate capsules formulated to provide 150 mg of elemental magnesium, or DHA-LysoPC capsules for two weeks when recovery from depression is assessed.
Patients presenting symptoms of depression, in addition to being provided standard of care for depression, are prescribed Mg-EPA or Mg Citrate capsules formulated to provide 150 mg of elemental magnesium, or EPA capsules for two weeks when recovery from depression is assessed.
(§1) Patients presenting symptoms of depression, in addition to being provided standard of care for depression, are prescribed Zn-DHA or zinc gluconate capsules formulated to provide a daily dosage of 30 mg of elemental zinc, or DHA capsules for two weeks when recovery from depression is assessed.
as §1, with “Zn-DHA-LysoPC” for “Zn-DHA”, “DHA-LysoPC” for “DHA”
Patients presenting symptoms of depression, in addition to being provided standard of care for depression, are prescribed Zn-EPA or zinc gluconate capsules that provide a daily dosage of 30 mg of elemental Zn, or EPA capsules for two weeks when recovery from depression is assessed.

[2] = Zn levels in cerebrospinal fluid of rats fed Zn compositions; format: in vivo, Sprague-Dawley rats; details: oral gavage, about 1 mg elemental zinc per kg per day for 3 weeks, compared with Zinc gluconate
Experimental: Sprague-Dawley rats are fed various […] compositions by oral gavage so as to provide about 1 mg elemental zinc per kg per day for 3 weeks. The zinc compositions include Zn-DHA, Zn-DHA-LysoPC and Zn-EPA. Control rats were administered equivalent molar amount of zinc gluconate. Cerebrospinal fluid is collected at the end of the treatment, and zinc is measured by atomic absorption spectroscopy.

rats = test: T-maze test (forced alternation or left-right discrimination task); format: in vivo; details: diet
Experimental: Mg-DHA composition is provided as supplement in standard rat feed. On an average, rats consume about 50 mg/Kg/day of elemental Mg, on a feeding schedule so as to maintain 85% of its free-feeding weight. In the control group, rats are fed either DHA or magnesium citrate (Mg Citrate) supplemented diet on schedule similar to test group. After habituation to the apparatus and pre-training, each rat undergoes 4 trials of standard T-maze test (Shoji et al, J. Vis. Exp. (60), e3300, DOI: 10.3791/3300 (2012)) on day 1 or day 21 of Mg-DHA, Mg Citrate, or DHA feeding. Rats are subject to either forced alternation task or left-right discrimination task. Behaviors in the T-maze apparatus is recorded and statistically analyzed by two way repeated measures analysis of variance. […] In another set of experiments, rats fed with DHA, Mg Citrate, or Mg-DHA for 21 days are subject to novel-object-location (NOL) tests.
Mg-DHA composition is provided as supplement in standard rat feed. On an average, rats consume about 50 mg/Kg/day of elemental Mg, on a feeding schedule so as to maintain 85% of its free-feeding weight. In the control group, rats are fed DHA-LysoPC or Mg Citrate supplemented diet on schedule similar to test group. After habituation to the apparatus and pre-training, each rat undergoes 4 trials of standard T-maze test (Shoji et al, J. Vis. Exp. (60), e3300, DOI: 10.3791/3300 (2012)) on day 1 or day 21 of Mg-DHA-LysoPC, Mg Citrate or DHA-LysoPC feeding. Rats are subjected to either forced alternation task or left-right discrimination task. Behaviors in the T-maze apparatus is recorded and statistically analyzed by two way repeated measures analysis of variance. […] In another set of experiments, rats fed with Mg Citrate, DHA-LysoPC, or Mg-DHA-LysoPC for 21 days are subjected to novel-object-location (NOL) tests.
Mg-EPA composition is provided as supplement in standard rat feed. On an average, rats consume about 50 mg/Kg/day of elemental Mg, on a feeding schedule so as to maintain 85% of its free-feeding weight. In the control group, rats are fed EPA or Mg Citrate supplemented diet on scheduled similar to test group. After habituation to the apparatus and pre-training, each rat undergoes 4 trials of standard T-maze test (Shoji et al, J. Vis. Exp. (60), e3300, DOI: 10.3791/3300 (2012)) on day 1 or day 21 of Mg-EPA, Mg Citrate, or EPA feeding. Rats are subjected to either forced alternation task or left-right discrimination task. Behaviors in the T-maze apparatus is recorded and statistically analyzed by two way repeated measures analysis of variance. […]
Zn-DHA composition is provided as supplement in standard rat feed. […] Behaviors in the T-maze apparatus is recorded and statistically analyzed by two way repeated measures analysis of variance. […]

[3] = 30 mg elemental zinc daily for two weeks, compared with the fatty acid alone or zinc gluconate
[4] = about 1 mg/kg body weight/day elemental Zn, day 1 or day 21, compared with the fatty acid alone or zinc gluconate
[5] = 150 mg elemental magnesium for two weeks
[6] = about 50 mg/Kg/day elemental Mg, day 1 or day 21, compared with the fatty acid alone or Mg Citrate

Row | SMILES | Hamilton Depression Rating scale and Beck Depression Inventory scores [1, 3] | CSF levels of Zn [2] | working and reference memory (rats; [4]) | Hamilton Depression Rating scale and Beck Depression Inventory scores [1, 5] | working and reference memory (rats; [6])
1 | CC/C=C\C/C=C\C/C=C\C/C=C\C/C=C\C/C=C\CCC(=O)[O-].CC/C=C\C/C=C\C/C=C\C/C=C\C/C=C\C/C=C\CCC(=O)[O-].[Zn+2] [Zn-DHA] | statistically significant improvement | higher | statistically significant increase | – | –
2 | CC/C=C\C/C=C\C/C=C\C/C=C\C/C=C\C/C=C\CCC(=O)[O-].CC/C=C\C/C=C\C/C=C\C/C=C\C/C=C\C/C=C\CCC(=O)[O-].[Mg+2] [Mg-DHA] | – | – | – | statistically significant improvement | statistically significant increase
3 | CC/C=C\C/C=C\C/C=C\C/C=C\C/C=C\CCCC(=O)[O-].CC/C=C\C/C=C\C/C=C\C/C=C\C/C=C\CCCC(=O)[O-].[Zn+2] [Zn-EPA] | statistically significant improvement | higher | statistically significant increase | – | –
4 | CC/C=C\C/C=C\C/C=C\C/C=C\C/C=C\CCCC(=O)[O-].CC/C=C\C/C=C\C/C=C\C/C=C\C/C=C\CCCC(=O)[O-].[Mg+2] [Mg-EPA] | – | – | – | statistically significant improvement | statistically significant increase

Reference: US20130123355A1, “Fatty acids and metal ions compositions and uses thereof” (priority 2011, published 2013)
